Columns and labels:
Format in all cases: in vivo
Digitaria insularis = experiment: Control of weeds at pre-emergence stage (Example 9)
Source text: (§1) The effect of application of asulam was observed on the growth of weeds at pre-emergence stage for different application rates. The percentage (%) control of weeds has been evaluated and disclosed in Table 9.

Eleusine indica = experiment: as above
Source text: as §1

Ipomoea hederifolia = experiment: Control of Ipomoea hederifolia weed at different application rates (Example 6)
Source text: The effect of application of asulam was observed on the growth of Ipomoea hederifolia weed at 21, 28 and 35 DAA (days after application) at different application rates. The percentage (%) control of weeds has been evaluated and disclosed in Table 6.

Ambrosia artemisifolia = experiment: Control of Ambrosia artemisifolia weed at different application rates (Example 4)
Source text: The effect of application of asulam was observed on the growth of Ambrosia artemisifolia weed at 28, 35 and 49 DAA (days after application) at different application rates. The percentage (%) control of weeds has been evaluated and disclosed in Table 4.

Avena strigose [1] = experiment: Control of Avena strigose weed by asulam alone, with adjuvant, with additional herbicide (Example 3); conditions: 4500 g a.i/ha
Procedure: (§2) The effect of application of asulam alone, asulam along with an adjuvant, and asulam along with an additional herbicide was observed on the growth of Avena strigose weed at 42, 49, 56 and 63 DAA (days after application). The percentage (%) control of weeds was evaluated to assess the efficacy of the compositions and the same has been disclosed in Table 3. Untreated control was also compared, wherein no herbicidal composition was applied and thus, no control of weeds was observed.

Megathyrsus maximus = experiment: Control of Megathyrsus maximus weed at different application rates (Example 5)
Source text: The effect of application of asulam was observed on the growth of Megathyrsus maximus weed at 14 and 21 DAA (days after application) at different application rates. The percentage (%) control of weeds has been evaluated and disclosed in Table 5.

Raphanus raphanistrum = experiment: Control of Raphanus raphanistrum weed by asulam alone, with adjuvant, with additional herbicide (Example 2); conditions: 4500 g a.i/ha
Procedure: as §2, with “Raphanus raphanistrum” for “Avena strigose”, “2.” for “3.”

Avena strigose [2] = experiment: Control of Avena strigose weed at different application rates (Example 8); conditions: 1200 g a.i/ha; 28 DAA
Source text: The effect of application of asulam was observed on the growth of Avena strigose weed at 28, 35 and 49 DAA (days after application) at different application rates. The percentage (%) control of weeds has been evaluated and disclosed in Table 8.

COC(=O)NS(=O)(=O)c1ccc(N)cc1 [Asulam, asulam]
percentage (%) control of weeds (Digitaria insularis; 1000 g a.i/ha, 28 DAA): 94%
percentage (%) control of weeds (Digitaria insularis; 1000 g a.i/ha, 35 DAA): 98%
percentage (%) control of weeds (Digitaria insularis; 1000 g a.i/ha, 49 DAA): 100%
percentage (%) control of weeds (Digitaria insularis; 1200 g a.i/ha, 28 DAA): 98%
percentage (%) control of weeds (Digitaria insularis; 1200 g a.i/ha, 35 DAA): 100%
percentage (%) control of weeds (Digitaria insularis; 1200 g a.i/ha, 49 DAA): 100%
percentage (%) control of weeds (Digitaria insularis; 1500 g a.i/ha, 28 DAA): 99%
percentage (%) control of weeds (Digitaria insularis; 1500 g a.i/ha, 35 DAA): 100%
percentage (%) control of weeds (Digitaria insularis; 1500 g a.i/ha, 49 DAA): 100%
percentage (%) control of weeds (Digitaria insularis; 1800 g a.i/ha, 28 DAA): 99%
percentage (%) control of weeds (Digitaria insularis; 1800 g a.i/ha, 35 DAA): 100%
percentage (%) control of weeds (Digitaria insularis; 1800 g a.i/ha, 49 DAA): 100%
percentage (%) control of weeds (Digitaria insularis; 2250 g a.i/ha, 28 DAA): 100%
percentage (%) control of weeds (Digitaria insularis; 2250 g a.i/ha, 35 DAA): 100%
percentage (%) control of weeds (Digitaria insularis; 2250 g a.i/ha, 49 DAA): 100%
percentage (%) control of weeds (Digitaria insularis; 2500 g a.i/ha, 28 DAA): 99%
percentage (%) control of weeds (Digitaria insularis; 2500 g a.i/ha, 35 DAA): 100%
percentage (%) control of weeds (Digitaria insularis; 2500 g a.i/ha, 49 DAA): 100%
percentage (%) control of weeds (Eleusine indica; 1200 g a.i/ha, 28 DAA): 83%
percentage (%) control of weeds (Eleusine indica; 1200 g a.i/ha, 35 DAA): 78%
percentage (%) control of weeds (Eleusine indica; 1200 g a.i/ha, 49 DAA): 99%
percentage (%) control of weeds (Eleusine indica; 1500 g a.i/ha, 28 DAA): 88%
percentage (%) control of weeds (Eleusine indica; 1500 g a.i/ha, 35 DAA): 88%
percentage (%) control of weeds (Eleusine indica; 1500 g a.i/ha, 49 DAA): 99%
percentage (%) control of weeds (Eleusine indica; 1800 g a.i/ha, 28 DAA): 90%
percentage (%) control of weeds (Eleusine indica; 1800 g a.i/ha, 35 DAA): 91%
percentage (%) control of weeds (Eleusine indica; 1800 g a.i/ha, 49 DAA): 100%
percentage (%) control of weeds (Eleusine indica; 2250 g a.i/ha, 28 DAA): 92%
percentage (%) control of weeds (Eleusine indica; 2250 g a.i/ha, 35 DAA): 93%
percentage (%) control of weeds (Eleusine indica; 2250 g a.i/ha, 49 DAA): 100%
percentage (%) control of weeds (Eleusine indica; 2500 g a.i/ha, 28 DAA): 91%
percentage (%) control of weeds (Eleusine indica; 2500 g a.i/ha, 35 DAA): 92%
percentage (%) control of weeds (Eleusine indica; 2500 g a.i/ha, 49 DAA): 100%
Control of Ipomoea hederifolia (Ipomoea hederifolia; 1800 g a.i/ha, 21 DAA): 63%
Control of Ipomoea hederifolia (Ipomoea hederifolia; 1800 g a.i/ha, 28 DAA): 77%
Control of Ipomoea hederifolia (Ipomoea hederifolia; 1800 g a.i/ha, 35 DAA): 76%
Control of Ipomoea hederifolia (Ipomoea hederifolia; 2250 g a.i/ha, 21 DAA): 71%
Control of Ipomoea hederifolia (Ipomoea hederifolia; 2250 g a.i/ha, 28 DAA): 83%
Control of Ipomoea hederifolia (Ipomoea hederifolia; 2250 g a.i/ha, 35 DAA): 85%
Control of Ipomoea hederifolia (Ipomoea hederifolia; 2500 g a.i/ha, 21 DAA): 70%
Control of Ipomoea hederifolia (Ipomoea hederifolia; 2500 g a.i/ha, 28 DAA): 84%
Control of Ipomoea hederifolia (Ipomoea hederifolia; 2500 g a.i/ha, 35 DAA): 88%
Control of Ambrosia Artemisifolia (Ambrosia artemisifolia; 1200 g a.i/ha, 28 DAA): 86%
Control of Ambrosia Artemisifolia (Ambrosia artemisifolia; 1200 g a.i/ha, 35 DAA): 87%
Control of Ambrosia Artemisifolia (Ambrosia artemisifolia; 1200 g a.i/ha, 49 DAA): 90%
Control of Ambrosia Artemisifolia (Ambrosia artemisifolia; 1500 g a.i/ha, 28 DAA): 91%
Control of Ambrosia Artemisifolia (Ambrosia artemisifolia; 1500 g a.i/ha, 35 DAA): 90%
Control of Ambrosia Artemisifolia (Ambrosia artemisifolia; 1500 g a.i/ha, 49 DAA): 91%
Control of Ambrosia Artemisifolia (Ambrosia artemisifolia; 2250 g a.i/ha, 28 DAA): 93%
Control of Ambrosia Artemisifolia (Ambrosia artemisifolia; 2250 g a.i/ha, 35 DAA): 94%
Control of Ambrosia Artemisifolia (Ambrosia artemisifolia; 2250 g a.i/ha, 49 DAA): 99%
Control of Ambrosia Artemisifolia (Ambrosia artemisifolia; 2500 g a.i/ha, 28 DAA): 92%
Control of Ambrosia Artemisifolia (Ambrosia artemisifolia; 2500 g a.i/ha, 35 DAA): 93%
Control of Ambrosia Artemisifolia (Ambrosia artemisifolia; 2500 g a.i/ha, 49 DAA): 99%
Control of Avena strigose (Avena strigose [1]; 42 DAA): 47.5%
Control of Avena strigose (Avena strigose [1]; 49 DAA): 43.8%
Control of Avena strigose (Avena strigose [1]; 56 DAA): 37.5%
Control of Megathyrsus maximus (Megathyrsus maximus; 3200 g a.i/ha, 14 DAA): 79%
Control of Megathyrsus maximus (Megathyrsus maximus; 3200 g a.i/ha, 21 DAA): 85%
Control of Megathyrsus maximus (Megathyrsus maximus; 3600 g a.i/ha, 14 DAA): 80%
Control of Megathyrsus maximus (Megathyrsus maximus; 3600 g a.i/ha, 21 DAA): 86%
Control of Megathyrsus maximus (Megathyrsus maximus; 4000 g a.i/ha, 14 DAA): 76%
Control of Megathyrsus maximus (Megathyrsus maximus; 4000 g a.i/ha, 21 DAA): 85%
Control of Raphanus raphanistrum (Raphanus raphanistrum; 42 DAA): 71.3%
Control of Raphanus raphanistrum (Raphanus raphanistrum; 49 DAA): 68.8%
Control of Raphanus raphanistrum (Raphanus raphanistrum; 56 DAA): 66.3%
Control of Avena strigose (Avena strigose [2]): 81%
